# Results as given in patent US8575146B2, “Pharmaceutical uses of staurosporine derivatives” (Novartis AG, priority 2003, dated 2013).
# Assays:
# [1] = tested on: BR and C2 canine mastocytoma cells; test: XTT-based proliferation assay of canine mast cell tumor cell lines; conditions: 0.1-10 μM; 48-72 hours; BR or C2 cells
# Source text: (§1) The C2 cell line has an internal tandem duplication (ITD) of the KIT juxtamembrane region.
# [2] = tested on: systemic mastocytosis with D816V KIT mutation; test: Case of a patient with systemic mastocytosis / mast cell leukemia treated with PKC412; format: in vivo, human
# Source text: They were supported with red blood cell and platelet transfusions, antihistamine blockade, and cromolyn sodium.
# [3] = molecular target: T1, constitutively activated mutant canine KIT in BR and C2 cells (Canis lupus familiaris, UniProt O97799, L579P); test: KIT autophosphorylation in BR and C2 canine mastocytoma cell lysates (anti-P-Tyr Western immunoblot); format: cell-based
# T1 construct: Lysates prepared from BR or C2 cells are probed with an anti-P-Tyr antibody; endogenous in cells; host or cells: BR canine mastocytoma cell line
# Source text: as §1
# T1 sequence (O97799 28-979 L579P): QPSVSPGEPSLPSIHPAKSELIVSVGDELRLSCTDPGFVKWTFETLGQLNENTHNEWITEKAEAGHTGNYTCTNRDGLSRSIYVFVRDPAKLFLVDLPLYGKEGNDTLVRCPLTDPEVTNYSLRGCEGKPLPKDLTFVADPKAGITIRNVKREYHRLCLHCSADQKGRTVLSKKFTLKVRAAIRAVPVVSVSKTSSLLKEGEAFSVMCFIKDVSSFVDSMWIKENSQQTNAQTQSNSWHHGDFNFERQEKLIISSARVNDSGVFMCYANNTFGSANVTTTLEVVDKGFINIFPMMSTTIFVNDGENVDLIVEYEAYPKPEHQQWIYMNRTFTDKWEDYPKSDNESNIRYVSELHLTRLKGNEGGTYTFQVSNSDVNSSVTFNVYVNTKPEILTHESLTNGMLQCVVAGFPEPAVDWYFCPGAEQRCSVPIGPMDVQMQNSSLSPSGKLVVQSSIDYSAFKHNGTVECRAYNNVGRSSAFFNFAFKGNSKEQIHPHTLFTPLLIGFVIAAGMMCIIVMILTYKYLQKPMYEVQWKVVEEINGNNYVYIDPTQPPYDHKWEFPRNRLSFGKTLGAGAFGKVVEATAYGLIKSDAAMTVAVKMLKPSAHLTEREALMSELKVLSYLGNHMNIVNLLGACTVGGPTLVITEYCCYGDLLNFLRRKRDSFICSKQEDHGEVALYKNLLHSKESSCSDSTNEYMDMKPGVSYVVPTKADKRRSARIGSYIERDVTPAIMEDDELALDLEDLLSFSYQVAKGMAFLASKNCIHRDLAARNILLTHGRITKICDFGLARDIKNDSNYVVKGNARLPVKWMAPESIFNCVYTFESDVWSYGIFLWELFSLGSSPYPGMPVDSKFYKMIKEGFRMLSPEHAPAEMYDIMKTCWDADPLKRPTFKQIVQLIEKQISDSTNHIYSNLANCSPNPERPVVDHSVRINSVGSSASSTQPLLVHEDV
smiles,measurement,setting,value
"CO[C@@H]1[C@H](N(C)C(=O)c2ccccc2)C[C@H]2O[C@]1(C)n1c3ccccc3c3c4c(c5c6ccccc6n2c5c31)C(=O)NC4 [PKC412, N-[(9S, 10R,11R,13R)-2,3,10,11,12,13-hexahydro-10-methoxy-9-methyl-1-oxo-9,13-epoxy-1H,9H-diindolo[1,2,3-gh:3′,2′,1′-lm]pyrrolo[3,4j][1,7]benzodiazonin-11-yl]-N-methylbenzamide]",proliferation decreased compared to cells treated with media only,[1],90-95%
same,tolerability / adverse events,"[2]; 100 mg twice daily orally, later 75 mg po tid",well tolerated without any significant adverse events
same,day on which patient expired,[2]; PKC412 stopped on day #102,111 days
same,serum histamine level,[2]; after 1 month (about day 32),1031 ng/dL
same,"Transient platelet-transfusion independence, duration",[2]; cycle 2,2-3 weeks
same,platelets,"[2]; cycle 2, during transient platelet-transfusion independence","20,000-25,000 /mm3"
same,Serum histamine,[2]; cycle 3,2525 ng/dL
same,bilirubin (total),"[2]; cycle 3, when PKC412 stopped on day #102",14 mg/dL
same,circulating mast cells,[2]; day 32 of treatment,< 5%
same,white blood cell count,[2]; day 32 of treatment,normal
same,Bone marrow clusters of mast cells by IPOX,[2]; end of cycle 1,no changes
same,Bone marrow blasts,"[2]; end of cycle 1 / after 1 month, 5-10% at presentation",< 5%
same,Karnofsky performance status,"[2]; end of cycle 1 / after 1 month, from 20% before therapy",70%
same,Response (criteria of Valent et al),"[2]; end of cycle 1, 100 mg twice daily orally, 28-day cycles",Partial Response
same,direct bilirubin,"[2]; end of cycle 1, from 2.8",1.1 mg/dL
same,total bilirubin,"[2]; end of cycle 1, from 4.8",2.1 mg/dL
same,Peripheral blood mast cell numbers,"[2]; end of cycle 1, from 40-50%",< 10%
same,LDH,"[2]; end of cycle 1, from 769",239 IU/L
same,Serum histamine,"[2]; end of cycle 1, from 7000, normal <100",1000 ng/dL
same,Bone marrow blasts,[2]; end of cycle 2,10-15%
same,Bone marrow mast cell clusters,[2]; end of cycle 2,no significant change
same,Peripheral blood mast cell numbers,[2]; end of cycle 2,< 10%
same,Response,[2]; end of cycle 2,Maintenance of Partial Response
same,Serum histamine,[2]; end of cycle 2,800 to 1200 ng/dL
same,serum tryptase,[2]; end of cycle 2,> 200 µg/L
same,direct bilirubin,"[2]; end of cycle 2, from 1.1",0.7 mg/dL
same,total bilirubin,"[2]; end of cycle 2, from 2.1",1.3 mg/dL
same,Response,"[2]; end of cycle 3, dose increased to 75 mg po tid on day #91",Disease Progression
same,Inhibition of KIT autophosphorylation,"[3]; 0.1 μM dose, BR or C2 cells, 90 minutes",Near complete inhibition
same,autophosphorylation of c-kit,"[3]; 0.001-0.01 μM doses, BR or C2 cells, 90 minutes",Limited autophosphorylation
same,Inhibition of KIT autophosphorylation,"[3]; 10 and 1.0 μM doses, BR or C2 cells, 90 minutes",complete inhibition
same,expression of c-kit protein (membrane reprobed with anti-c-kit antibody),[3]; PKC412 treated BR or C2 cells,no change
